Entries after “also recorded” stand apart in the source; their conditions may differ.
Legend:
[1] = biological target: T1, Notum (Homo sapiens, UniProt Q6P988, C330S); assay: Notum activity assay with OPTS as substrate; type: biochemical; design: The human Notum enzyme core comprising amino acids S81–T451 with a C330S mutation; made in house; dialyzed conditioned medium used without purification; details: result in words
T1 sequence (Q6P988 81-451 C330S): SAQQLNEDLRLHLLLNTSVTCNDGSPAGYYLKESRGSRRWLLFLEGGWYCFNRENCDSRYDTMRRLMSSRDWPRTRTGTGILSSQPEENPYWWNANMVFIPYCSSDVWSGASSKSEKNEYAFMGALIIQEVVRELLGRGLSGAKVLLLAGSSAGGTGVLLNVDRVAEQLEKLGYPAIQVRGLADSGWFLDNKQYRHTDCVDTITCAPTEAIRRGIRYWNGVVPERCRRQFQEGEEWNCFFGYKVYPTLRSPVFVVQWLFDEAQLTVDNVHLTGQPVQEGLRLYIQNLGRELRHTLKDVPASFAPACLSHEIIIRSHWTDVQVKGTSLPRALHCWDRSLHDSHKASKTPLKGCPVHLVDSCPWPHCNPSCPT
Procedure: OPTS is a common lipase substrate with an octanoyl lipid linked to a fluorescent moiety. It is not a natural Notum substrate; however, it can be used to quantify the enzymatic activity of purified Notum protein[23],[25],[28]. […] The fluorescent lipase substrate OPTS was dissolved in water at a concentration of 20 µM. […] The inhibition curves were fitted with a one-site model with GraphPad Prism 8 software.

[2] = biological target: T1, Notum; assay: Thermal shift assay (SYPRO Orange) of Notum; details: compound 500 µM; for Thermoflour melting curve fluorescence of Notum: Fig 2c
Procedure: Reference wells, i.e. solutions without compounds were used to compare the melting temperature (Tm). The experiments were performed in triplicate.

[3] = biological target: T1, Notum; assay: SPR equilibrium binding to biotinylated Notum on streptavidin chip; design: The human Notum enzyme core comprising amino acids S81–T451 with a C330S mutation; made in house; dialyzed conditioned medium used without purification; details: for SPR Response: Fig 2b
Procedure: The human Notum core sequence was cloned in a pHL-Avi3 vector[49] and co-transfected with the pDisplay_BirA-ER plasmid[50] into HEK293T cells with the media supplemented with 20 µM biotin. This procedure allows in vivo biotinylation to occur, and the dialyzed conditioned medium was directly used for SA sensor chip immobilization without protein purification. […] Approximately 2500 resonance units (RU) of the biotinylated Notum was coupled onto the chip. […] The response was plotted versus the concentration of the analytes and fitted by nonlinear regression to a one-site saturation binding model (GraphPad Prism 8).

SMILES: Cn1c(=O)c2[nH]cnc2n(C)c1=O [theophylline, 1,3-dimethylxanthine]
- Notum inhibitory effect in OPTS enzyme assay [1]: not sufficient to inhibit Notum enzyme activity; also recorded: could not detect obvious Notum inhibitory effects
- Thermoflour melting curve fluorescence of Notum ([2]; Temperature 24.5): 897.128
- Thermoflour melting curve fluorescence of Notum ([2]; Temperature 25.5): 765.384
- Thermoflour melting curve fluorescence of Notum ([2]; Temperature 26.5): 637.209
- Thermoflour melting curve fluorescence of Notum ([2]; Temperature 27.5): 518.408
- Thermoflour melting curve fluorescence of Notum ([2]; Temperature 28.5): 414.177
- Thermoflour melting curve fluorescence of Notum ([2]; Temperature 29.5): 331.765
- Thermoflour melting curve fluorescence of Notum ([2]; Temperature 30.5): 250.774
- Thermoflour melting curve fluorescence of Notum ([2]; Temperature 31.5): 158.442
- Thermoflour melting curve fluorescence of Notum ([2]; Temperature 32.5): 68.441
- Thermoflour melting curve fluorescence of Notum ([2]; Temperature 33.5): -19.5239
- Thermoflour melting curve fluorescence of Notum ([2]; Temperature 34.5): -111.255
- Thermoflour melting curve fluorescence of Notum ([2]; Temperature 35.5): -209.389
- Thermoflour melting curve fluorescence of Notum ([2]; Temperature 36.5): -312.731
- Thermoflour melting curve fluorescence of Notum ([2]; Temperature 37.5): -413.402
- Thermoflour melting curve fluorescence of Notum ([2]; Temperature 38.5): -500.183
- Thermoflour melting curve fluorescence of Notum ([2]; Temperature 39.5): -562.853
- Thermoflour melting curve fluorescence of Notum ([2]; Temperature 40.5): -610.744
- Thermoflour melting curve fluorescence of Notum ([2]; Temperature 41.5): -645.08
- Thermoflour melting curve fluorescence of Notum ([2]; Temperature 42.5): -650.416
- Thermoflour melting curve fluorescence of Notum ([2]; Temperature 43.5): -632.566
- Thermoflour melting curve fluorescence of Notum ([2]; Temperature 44.5): -596.655
- Thermoflour melting curve fluorescence of Notum ([2]; Temperature 45.5): -543.168
- Thermoflour melting curve fluorescence of Notum ([2]; Temperature 46.5): -459.896
- Thermoflour melting curve fluorescence of Notum ([2]; Temperature 47.5): -343.992
- Thermoflour melting curve fluorescence of Notum ([2]; Temperature 48.5): -208.285
- Thermoflour melting curve fluorescence of Notum ([2]; Temperature 49.5): -58.8655
- Thermoflour melting curve fluorescence of Notum ([2]; Temperature 50.5): 106.458
- Thermoflour melting curve fluorescence of Notum ([2]; Temperature 51.5): 280.009
- Thermoflour melting curve fluorescence of Notum ([2]; Temperature 52.5): 465.116
- Thermoflour melting curve fluorescence of Notum ([2]; Temperature 53.5): 688.929
- Thermoflour melting curve fluorescence of Notum ([2]; Temperature 54.5): 944.753
- Thermoflour melting curve fluorescence of Notum ([2]; Temperature 55.5): 1249.14
- Thermoflour melting curve fluorescence of Notum ([2]; Temperature 56.5): 1627.12
- Thermoflour melting curve fluorescence of Notum ([2]; Temperature 57.5): 2089.03
- Thermoflour melting curve fluorescence of Notum ([2]; Temperature 58.5): 2740.86
- Thermoflour melting curve fluorescence of Notum ([2]; Temperature 59.5): 3654.17
- Thermoflour melting curve fluorescence of Notum ([2]; Temperature 60.5): 4930.23
- Thermoflour melting curve fluorescence of Notum ([2]; Temperature 61.5): 6643.29
- Thermoflour melting curve fluorescence of Notum ([2]; Temperature 62.5): 8772.9
- Thermoflour melting curve fluorescence of Notum ([2]; Temperature 63.5): 11088.9
- Thermoflour melting curve fluorescence of Notum ([2]; Temperature 64.5): 13331.1
- Thermoflour melting curve fluorescence of Notum ([2]; Temperature 65.5): 15330
- Thermoflour melting curve fluorescence of Notum ([2]; Temperature 66.5): 16941.4
- Thermoflour melting curve fluorescence of Notum ([2]; Temperature 67.5): 18219.9
- Thermoflour melting curve fluorescence of Notum ([2]; Temperature 68.5): 19263.9
- Thermoflour melting curve fluorescence of Notum ([2]; Temperature 69.5): 20098.6
- Thermoflour melting curve fluorescence of Notum ([2]; Temperature 70.5): 20739.3
- Thermoflour melting curve fluorescence of Notum ([2]; Temperature 71.5): 21242.8
- Thermoflour melting curve fluorescence of Notum ([2]; Temperature 72.5): 21635.7
- Thermoflour melting curve fluorescence of Notum ([2]; Temperature 73.5): 21967.5
- Thermoflour melting curve fluorescence of Notum ([2]; Temperature 74.5): 22276.2
- Thermoflour melting curve fluorescence of Notum ([2]; Temperature 75.5): 22539.4
- Thermoflour melting curve fluorescence of Notum ([2]; Temperature 76.5): 22758.8
- Thermoflour melting curve fluorescence of Notum ([2]; Temperature 77.5): 22973.7
- Thermoflour melting curve fluorescence of Notum ([2]; Temperature 78.5): 23167.2
- Thermoflour melting curve fluorescence of Notum ([2]; Temperature 79.5): 23367.9
- Thermoflour melting curve fluorescence of Notum ([2]; Temperature 80.5): 23544.1
- Thermoflour melting curve fluorescence of Notum ([2]; Temperature 81.5): 23667.9
- Thermoflour melting curve fluorescence of Notum ([2]; Temperature 82.5): 23791
- Thermoflour melting curve fluorescence of Notum ([2]; Temperature 83.5): 23926.1
- Thermoflour melting curve fluorescence of Notum ([2]; Temperature 84.5): 24091.4
- Thermoflour melting curve fluorescence of Notum ([2]; Temperature 85.5): 24243.5
- Thermoflour melting curve fluorescence of Notum ([2]; Temperature 86.5): 24338.2
- Thermoflour melting curve fluorescence of Notum ([2]; Temperature 87.5): 24414.9
- Thermoflour melting curve fluorescence of Notum ([2]; Temperature 88.5): 24481.1
- Thermoflour melting curve fluorescence of Notum ([2]; Temperature 89.5): 24523
- Thermoflour melting curve fluorescence of Notum ([2]; Temperature 90.5): 24559.4
- Thermoflour melting curve fluorescence of Notum ([2]; Temperature 91.5): 24580.6
- Thermoflour melting curve fluorescence of Notum ([2]; Temperature 92.5): 24587.9
- Thermoflour melting curve fluorescence of Notum ([2]; Temperature 93.5): 24608.3
- Thermoflour melting curve fluorescence of Notum ([2]; Temperature 94.5): 24615
- Thermoflour melting curve fluorescence of Notum ([2]; Temperature 95.5): 24596.6
- Thermoflour melting curve fluorescence of Notum ([2]; Temperature 96.5): 24576.1
- Thermoflour melting curve fluorescence of Notum ([2]; Temperature 97.5): 24555
- Effect on Tm of Notum [2]: very weak binding to Notum
- ∆Tm of Notum ([2]; versus Notum without compounds): about 1 °C
- Melting temperature (Tm) of Notum ([2]; Notum without compounds Tm 63.6 °C): 64.5 °C
- SPR Response ([3]; theophylline conc. 8.138e-6 (unit not given)): 6
- SPR Response ([3]; theophylline conc. 1.628e-5 (unit not given)): 5.14
- SPR Response ([3]; theophylline conc. 3.255e-5 (unit not given)): 5.26
- SPR Response ([3]; theophylline conc. 6.51e-5 (unit not given)): 4.57
- SPR Response ([3]; theophylline conc. 0.0001302 (unit not given)): 4.5
- SPR Response ([3]; theophylline conc. 0.0002604 (unit not given)): 4.84
- SPR Response ([3]; theophylline conc. 0.0005208 (unit not given)): 5.18
- SPR Response ([3]; theophylline conc. 0.001042 (unit not given)): 6.64
- SPR Response ([3]; theophylline conc. 0.002083 (unit not given)): 9.15
- SPR Response ([3]; theophylline conc. 0.004167 (unit not given)): 13.17
- SPR Response ([3]; theophylline conc. 0.008333 (unit not given)): 19.59
- SPR Response ([3]; theophylline conc. 0.01667 (unit not given)): 29.6
- Binding to Notum (SPR response) ([3]; result in words): weak binding; also recorded: very weak binding

From article PMC7544826 (Communications Biology, 2020)
